Among the data in paper PMC8280112, “Substrate reduction therapy for Krabbe disease and metachromatic leukodystrophy using a novel ceramide galactosyltransferase inhibitor” (Scientific Reports, 2021) are IC50 values, retold here.

In this experiment the target is T1, Cerebroside sulfotransferase (CST) (Homo sapiens, UniProt Q99999).
T1 construct: made in house; host or cells: CHO cells stably expressing GAL3ST1 cDNA; MPER lysate
T1 sequence (Q99999 1-423): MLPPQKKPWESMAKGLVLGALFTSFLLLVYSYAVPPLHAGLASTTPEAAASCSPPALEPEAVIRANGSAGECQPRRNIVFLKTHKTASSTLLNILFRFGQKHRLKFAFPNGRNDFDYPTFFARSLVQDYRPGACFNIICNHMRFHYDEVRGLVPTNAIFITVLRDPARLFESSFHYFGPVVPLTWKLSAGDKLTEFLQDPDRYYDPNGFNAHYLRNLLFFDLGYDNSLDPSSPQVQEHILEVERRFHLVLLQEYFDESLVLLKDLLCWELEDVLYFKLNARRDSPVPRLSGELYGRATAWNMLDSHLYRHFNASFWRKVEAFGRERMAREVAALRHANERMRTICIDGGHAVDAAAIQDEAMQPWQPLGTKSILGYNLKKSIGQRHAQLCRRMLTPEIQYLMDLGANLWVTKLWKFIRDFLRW
Briefly: Cerebroside sulfotransferase assay. The following applies: lysate of CHO cells expressing GAL3ST1. The format is biochemical. On the procedure:
A 50 µL reaction consisting of 4 µg MPER lysate prepared from CHO cells stably expressing GAL3ST1 cDNA construct (made by BioMarin), 3 µM N-dodecanoyl-NBD-galactosylceramide […] 10 µM PAPS (Sigma) added as substrate (in DMSO/Tween 80), reaction buffer (100 mM Tris/HCl (pH 7.0), 2.5 mM ATP, 20 mM MgCl2), and test compound. The reaction was incubated at 37 ℃ for 2 h then stopped with 100 µL of 3:1 methanol:acetonitrile (containing 500 nM NBD-C6-OH ceramide as an IS). After 1 h shaking, 150 µL 1:2 H2O:ACN was added, mixed, and centrifuged 4000 rpm for 30 min at RT. Supernatant was transferred for LC–MS analysis using the same conditions used for the CGT cellular assay.

The structures appear in SMILES notation. A value given as a limit tells only on which side of the number the result lay.

In the case of `C[C@H]1N(c2ccc(Br)cc2)C(=O)N(c2ccc(Br)cc2)C1(O)c1cccc(OC(F)(F)F)c1` (stereo partly shown) [S202], the concentration for half-maximal inhibition (IC50) (commonly the concentration at which inhibition is half-maximal) is > 50 µM.
